Results as given in patent US20230416245A1, “ADENOSINE ANALOGS FOR THE TREATMENT OF DISEASE” (BIOINTERVENE, INC., priority 2020, published 2023).

Columns and labels:
ADORA3 = ADORA3 (Homo sapiens (Human), UniProt P0DMS8); experiment: Intracellular calcium release assay (FLIPR); assay type: cell-based; details: for EC50: CHO-K1 cells, Fluo-4, top concentration 10 μM, read-out: Cell Calcium Assay EC50; for Cell Calcium Efficacy (%): percentage of the response to NECA
Method: Example 32: Intracellular Calcium Release Assay
Cell Culture: The table below lists the cell lines used that stably express the 4 subtypes of adenosine receptors, along with the growth medium used for each:
For experiments with the ADORA1- and ADORA3-expressing cells, the medium was aspirated and the cells washed twice with 10 mL DPBS. Two mL of trypsin was added and incubated at 37° C. for 1 minute. Then 10 mL of platting media was added to terminate the digestion and 1 mL of the solution was taken out for cell counting. ADORA2A- and ADORA2B-expressing cells were thawed rapidly in a 37° C. water bath. Cell suspensions were transferred to 50 mL conical tubes. Plating media was added to the 10 mL mark and then 1 mL taken out for cell counting. The 50 mL tubes containing the various types of cells were centrifuged at 1000 g. Then the supernatants were aspirated, being careful not to aspirate the cells. The cell pellets were resuspended in 3-5 mL platting media, then 0.5 mL was taken out for cell counting. Then the cell suspension was diluted to 1×10^6 cells/mL (20,000 cells per 20 μL per well) in platting medium, and cells were seeded into 384-well cell plates (Greiner-781946). The 384-well cell plate was placed in a 37° C./5% CO2 incubator (Thermo-371, Thermo Scientific) for 16-20 hours.
Preparation of the intracellular calcium imaging agent (Fluo-4 Direct™ Calcium Assay Kit, Invitrogen-F10471, Thermo Scientific): One mL of FLIPR Assay Buffer was added to 77 mg probenecid to make a 250 mM solution, which was used fresh for each day. One vial of Fluo-4 Direct™ crystals was thawed and 10 mL of FLIPR Assay Buffer was added to the vial. 0.2 mL of probenecid was added to each 10 mL vial of Fluo-Direct™ solution, such that the final assay concentration was 2.5 mM. It was vortexed, left to stand >5 min and protected from light. The dye was prepared fresh each day.
Compound Preparation: Compound plates were prepared as follows. First, the test compound was diluted to prepare a 2 mM solution and then 10-point 3-fold serial dilutions were made using ECHO (ECHO 555, LabCyte), then 900 nL was transferred to the compound plate. For all targets, the final top concentration of the test compound was […]. For agonist reference compounds, 10-point and 3-fold serial dilutions were made, then 900 nL was transferred to the assay plate. Then 30 μL of assay buffer was added to the compound plate and then the plate was centrifuged at 1000 rpm for 1 min.
FLIPR Assay: Cell plates were removed from the incubator, to which were added 20 μL 2×Fluo-4 Direct™ solution, then the plates were reincubated in a 5% CO2, 37° C. incubator for 50 min and at RT for 10 min. To run the protocol on the Fluorescent Imaging Plate Reader (FLIPR) TETRA (MD-FT0249, Molecular Devices, Inc.), 10 μL of assay buffer was transferred from the 384-well plate (Greiner-781280) to the cell plates and then the fluorescence signal was read. Then 10 μL of compound solution was transferred from the compound plate to the cell plates and the fluorescence signal was read. The “Max-Min” was calculated, starting from Read 91 to the maximum allowed. For agonists, activation %=(RLU−LC)/(HC−LC)*100, based on the following: RLU=relative light unit, 91 to maximum allowed signal; HC=average signal of the high concentration of agonist; LC=average signal of DMSO well. The data were fitted using GraphPad Prism 5, using the model “log(agonist) vs. response—Variable slope” to determine the EC50 value. The receptor efficacy of the test compound relative to the agonist NECA was calculated as a percentage (%) of the response to […]. Table 10 includes EC50 values for compounds described herein.

[1] = target: human adenosine A3 receptor (Homo sapiens (Human), UniProt P0DMS8); experiment: Intracellular cAMP levels (inhibition of forskolin-stimulated cAMP production); assay type: cell-based; details: for EC50: CHO cells expressing human adenosine A3 receptors, forskolin 10 μM; for CAMP Efficacy (%): maximal response as percentage of the response produced by 100 nM IB-MECA
human adenosine A3 receptor, sequence (P0DMS8 whole entry): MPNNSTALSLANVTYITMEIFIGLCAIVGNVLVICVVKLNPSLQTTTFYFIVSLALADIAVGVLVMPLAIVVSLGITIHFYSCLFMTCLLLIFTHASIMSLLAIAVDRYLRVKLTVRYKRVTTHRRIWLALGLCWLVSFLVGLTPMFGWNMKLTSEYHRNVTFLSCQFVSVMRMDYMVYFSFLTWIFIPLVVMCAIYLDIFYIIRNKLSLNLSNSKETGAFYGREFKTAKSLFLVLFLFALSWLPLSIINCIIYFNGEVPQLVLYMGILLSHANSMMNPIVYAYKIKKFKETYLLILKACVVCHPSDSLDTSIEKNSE
Description: Example 31: Intracellular cAMP Levels
The method followed is that published in Yates L, Clark J H, Martin T J, James S, Broadley K J, Kidd E J. Radioligand binding and functional responses of ligands for human recombinant adenosine A3 receptors. Auton Autacoid Pharmacol. 2006 April; 26(2):191-200.
Materials and Cell Culture: Adenosine deaminase was obtained from Roche (Lewes, UK). Forskolin was obtained from Sigma-Aldrich (Poole, UK). The sources of other materials are provided above in Example 1. CHO-K1 cells stably transfected with the human adenosine A3 receptor were grown in Dulbecco's modified Eagles medium with nutrient mixture F12 containing NaHCO3 and Glutamax. Media was supplemented with 10% fetal calf serum, geneticin (G418; 0.67 mg/mL), hygromycin (500 μg/mL) and adenosine deaminase (1 U/mL). Cells were maintained at 37° C. with 5% CO2 in air.
cAMP Measurements: Intracellular cAMP production was measured directly using a non-acetylation cAMP enzyme immunoassay (Amersham Biosciences, Little Chalfont, UK). Cultured CHO cells expressing human adenosine A3 receptors were allowed to plate overnight in 96-well plates in culture medium containing adenosine deaminase. Twenty-four hours later, they were incubated with adenosine analogues or compounds of the invention (0.1 nM-1 μM) for 5 min at 37° C., followed by incubation with forskolin (10 μM) for 10 min. The cells were then lysed with 200 μL of lysis reagent 1 provided with the kit for 10 min to release intracellular cAMP. Aliquots of the supernatants were then transferred to a 96-well microtitre plate coated with donkey anti-rabbit IgG; 100-μL cAMP standards (12.5-3200 fmol/well) were also added to the microtitre plate; 100 μL of rabbit anti-cAMP antibody was added to all wells and incubated at 2-5° C. for 2 h. The antiserum was made up in lysis reagent 2, which sequesters the key component in lysis reagent 1 and ensures that cAMP is free for subsequent analysis. Then 50 μL of cAMP peroxidase conjugate was added to all wells and left to incubate for 60 min at 2-5° C. to allow competition for the antibody between the un-labelled and horse radish peroxidase (HRP)-labelled cAMP. Wells were then washed with buffer and 150 μL of enzyme substrate containing 3,3′,5,5′-tetramethylbenzidine/hydrogen peroxide in 20% (v/v) dimethylformamide was added to each well and left to incubate for 60 min on a Titramax 100 microtitre plate shaker (Heidolph Instruments, Schwabach, Germany) at room temperature for color development. The reaction was stopped by the addition of 100 μL of 1 M sulfuric acid and the optical density (OD) read at 450 nm on a spectrophotometric MRX microplate reader (Dynex Technologies, Chantilly, VA, USA).
Analyses: Each sample/standard was analyzed in duplicate and the resulting OD values averaged. The percent bound (B/Bo) for each standard and sample was calculated using the following relationship: […]
where B is the specific OD for standard/sample and Bo is the specific OD for the zero standard. A standard curve was generated by plotting % B/Bo as a function of the log fmol cAMP standard per well. The fmol per well value for cAMP in each sample was then read from the graph. The results are expressed as a percent of control agonist response: (measured response/control response)*100 in the presence of the compounds of the invention. Concentration-response curves for inhibition of cAMP production were constructed for all compounds of the invention and reference compounds. The EC50 values (concentration producing a half-maximal response) were determined by non-linear regression analysis of the concentration-response curves generated with mean replicate values using Hill equation curve fitting, according to the equation:
where Y=response, A=left asymptote of the curve, D=right asymptote of the curve, C=compound concentration, and C50=EC50, and nH=slope factor. […]

ADORA3, sequence (P0DMS8 whole entry): as above

SMILES | EC50 (ADORA3) | Cell Calcium Efficacy (%) (ADORA3) | EC50 [1] | CAMP Efficacy (%) [1]
CCNc1nc(Cl)nc2c1ncn2[C@H]1[C@H](O)[C@H](O)[C@]2(C(F)F)C[C@H]12 [Compound 53, (1S,2R,3S,4R,5S)-4-(2-chloro-6-(ethylamino)-9H-purin-9-yl)-1-(difluoromethyl)bicyclo[3.1.0]hexane-2,3-diol] | ≥ 10000 nM | 0.6% |  | 
Cc1cc(NCC(F)F)c2ncn([C@H]3[C@H](O)[C@H](O)[C@@H]4C[C@@H]43)c2n1 [Compound 47, (1R,2R,3S,4R,5S)-4-(7-((2,2-difluoroethyl)amino)-5-methyl-3H-imidazo[4,5-b]pyridin-3-yl)bicyclo[3.1.0]hexane-2,3-diol] | 51.2 nM | 33.1% |  | 
O[C@@H]1[C@H](O)[C@@H]2C[C@@H]2[C@H]1n1cnc2c(NCCF)nc(Cl)nc21 [Compound 36, (1R,2R,3S,4R,5S)-4-(2-chloro-6-((2-fluoroethyl)amino)-9H-purin-9-yl)bicyclo[3.1.0]hexane-2,3-diol] | 9.2 nM | 44.9% |  | 
CCNc1cc(Cl)nc2c1ncn2[C@H]1[C@H](O)[C@H](O)[C@@H]2C[C@@H]21 [Compound 43, (1R,2R,3S,4R,5S)-4-(5-chloro-7-(ethylamino)-3H-imidazo[4,5-b]pyridin-3-yl)bicyclo[3.1.0]hexane-2,3-diol] | 5.1 nM | 50.3% |  | 
CCNc1cc(Cl)nc2c1ncn2[C@H]1[C@H](O)[C@H](O)[C@]2(C(=O)NC)C[C@H]12 [Compound 59, (1S,2R,3S,4R,5S)-4-(5-chloro-7-(ethylamino)-3H-imidazo[4,5-b]pyridin-3-yl)-2,3-dihydroxy-N-methylbicyclo[3.1.0]hexane-1-carboxamide] | 1.2 nM | 103.9% | 0.11 nM | 106.95%
CCNc1nc(C#CC2CC2)nc2c1ncn2[C@H]1[C@H](O)[C@H](O)[C@@H]2C[C@@H]21 [Compound 39, (1R,2R,3S,4R,5S)-4-(2-(cyclopropylethynyl)-6-(ethylamino)-9H-purin-9-yl)bicyclo[3.1.0]hexane-2,3-diol] | 9.8 nM | 15.4% | 0.2 nM | 54.4%
CCNc1cc(C)nc2c1ncn2[C@H]1[C@H](O)[C@H](O)[C@@H]2C[C@@H]21 [Compound 49, (1R,2R,3S,4R,5S)-4-(7-(ethylamino)-5-methyl-3H-imidazo[4,5-b]pyridin-3-yl)bicyclo[3.1.0]hexane-2,3-diol] | 17.1 nM | 6.8% |  | 
Cc1cc(COc2ccc(Cl)cc2CNc2cc(Cl)nc3c2ncn3[C@H]2[C@H](O)[C@H](O)[C@@H]3C[C@@H]32)on1 [Compound 75, (1R,2R,3S,4R,5S)-4-(5-chloro-7-((5-chloro-2-((3-methylisoxazol-5-yl)methoxy)benzyl)amino)-3H-imidazo[4,5-b]pyridin-3-yl)bicyclo[3.1.0]hexane-2,3-diol] | ≥ 10000 nM | 1.7% |  | 
O[C@@H]1[C@H](O)[C@@H]2C[C@@H]2[C@H]1n1cnc2c(NCC(F)F)nc(C3CC3)nc21 [Compound 58] | 25.4 nM | 14.2% |  | 
O[C@@H]1[C@H](O)[C@@H]2C[C@@H]2[C@H]1n1cnc2c(NCC(F)F)cc(C3CC3)nc21 [Compound 78] | 110 nM | 7.2% |  | 
O[C@@H]1[C@H](O)[C@@H]2C[C@@H]2[C@H]1n1cnc2c(NCC(F)(F)F)nc(Cl)nc21 [Compound 37, (1R,2R,3S,4R,5S)-4-(2-chloro-6-((2,2,2-trifluoroethyl)amino)-9H-purin-9-yl)bicyclo[3.1.0]hexane-2,3-diol] | 12.8 nM | 49.4% |  | 
O[C@@H]1[C@H](O)[C@@H]2C[C@@H]2[C@H]1n1cnc2c(NCC(F)(F)F)cc(Cl)nc21 [Compound 42, (1R,2R,3S,4R,5S)-4-(5-chloro-7-((2,2,2-trifluoroethyl)amino)-3H-imidazo[4,5-b]pyridin-3-yl)bicyclo[3.1.0]hexane-2,3-diol] | 43.4 nM | 45.8% |  | 
Cc1cc(NCCF)c2ncn([C@H]3[C@H](O)[C@H](O)[C@@H]4C[C@@H]43)c2n1 [Compound 48, (1R,2R,3S,4R,5S)-4-(7-((2-fluoroethyl)amino)-5-methyl-3H-imidazo[4,5-b]pyridin-3-yl)bicyclo[3.1.0]hexane-2,3-diol] | 37.6 nM | 13.1% |  | 
O[C@@H]1[C@H](O)[C@@H]2C[C@@H]2[C@H]1n1cnc2c(NCCF)cc(Cl)nc21 [Compound 41, (1R,2R,3S,4R,5S)-4-(5-chloro-7-((2-fluoroethyl)amino)-3H-imidazo[4,5-b]pyridin-3-yl)bicyclo[3.1.0]hexane-2,3-diol] | 36.7 nM | 31.3% |  | 
Cc1cc(NCc2cc(F)ccc2F)c2ncn([C@H]3[C@H](O)[C@H](O)[C@@H]4C[C@@H]43)c2n1 [Compound 50, (1R,2R,3S,4R,5S)-4-(7-((2,5-difluorobenzyl)amino)-5-methyl-3H-imidazo[4,5-b]pyridin-3-yl)bicyclo[3.1.0]hexane-2,3-diol] | 54 nM | 12.3% |  | 
